In PMC12277872, “Design, Synthesis, In Vitro, and In Silico Studies of 5‐(Diethylamino)‐2‐Formylphenyl Naphthalene‐2‐Sulfonate Based Thiosemicarbazones as Potent Anti‐Alzheimer Agents” (Archiv Der Pharmazie, 2025):

Columns and labels:
hMAO‐A = biological target: T1, hMAO‐A (Homo sapiens, UniProt P21397); assay: In vitro fluorometric MAO-A inhibition assay (tyramine substrate, horseradish peroxidase coupling); format: biochemical
T1 construct: purchased Sigma Aldrich M7316
T1 sequence (P21397 1-527): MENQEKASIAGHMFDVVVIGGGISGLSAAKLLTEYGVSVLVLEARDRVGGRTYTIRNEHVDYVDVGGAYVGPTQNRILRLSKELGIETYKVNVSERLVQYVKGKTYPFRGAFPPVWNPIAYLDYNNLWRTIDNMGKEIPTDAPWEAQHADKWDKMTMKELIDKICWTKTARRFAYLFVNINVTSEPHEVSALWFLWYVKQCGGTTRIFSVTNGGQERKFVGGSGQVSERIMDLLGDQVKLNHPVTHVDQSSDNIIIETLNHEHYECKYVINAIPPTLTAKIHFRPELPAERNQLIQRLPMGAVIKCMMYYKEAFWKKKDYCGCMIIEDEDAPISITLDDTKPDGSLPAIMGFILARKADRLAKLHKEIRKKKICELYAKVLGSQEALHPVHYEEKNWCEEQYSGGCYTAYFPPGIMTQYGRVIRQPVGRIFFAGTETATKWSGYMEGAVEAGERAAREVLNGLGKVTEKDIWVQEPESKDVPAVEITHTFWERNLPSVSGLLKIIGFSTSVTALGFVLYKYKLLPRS
Method: (§1) The in vitro fluorometric technique was used to assess each newly generated substance's inhibitory activity against hMAO‐A and hMAO‐B. In a horseradish peroxidase coupling reaction, the oxired reagent (10‐acetyl‐3,7‐dihydroxyphenoxazine) detects H2O2, a result of the oxidative deamination of tyramine, which is utilized as an MAO substrate. The test was carried out in two steps. First, each compound's concentrations of 10^–3 and 10^–4 M were investigated. […] These parameters of this study were made as in previous studies. We purchased these two enzymes from Sigma Aldrich (M7316‐Monoamine Oxidase A human and M7441‐ […]).

hMAO‐B = biological target: T2, hMAO‐B (Homo sapiens, UniProt P27338); assay: In vitro fluorometric MAO-B inhibition assay (tyramine substrate, horseradish peroxidase coupling); format: biochemical
T2 construct: purchased Sigma Aldrich M7441
T2 sequence (P27338 1-520): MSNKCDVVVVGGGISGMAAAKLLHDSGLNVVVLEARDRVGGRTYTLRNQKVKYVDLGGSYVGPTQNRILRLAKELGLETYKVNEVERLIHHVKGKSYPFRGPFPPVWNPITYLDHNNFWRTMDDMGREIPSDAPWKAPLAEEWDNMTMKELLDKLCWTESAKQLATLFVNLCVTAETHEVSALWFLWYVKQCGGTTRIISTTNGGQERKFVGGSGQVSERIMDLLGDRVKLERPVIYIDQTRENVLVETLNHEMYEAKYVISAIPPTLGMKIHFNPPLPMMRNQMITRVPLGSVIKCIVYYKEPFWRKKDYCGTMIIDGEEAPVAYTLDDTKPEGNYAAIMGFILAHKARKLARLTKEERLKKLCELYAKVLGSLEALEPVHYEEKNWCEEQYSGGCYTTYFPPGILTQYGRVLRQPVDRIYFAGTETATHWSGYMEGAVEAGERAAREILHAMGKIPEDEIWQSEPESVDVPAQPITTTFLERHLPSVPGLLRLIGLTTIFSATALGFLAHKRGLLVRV
Method: as §1

[1] = biological target: T3, AChE from Electrophorus electricus (electric eel) (Electrophorus electricus, UniProt O42275); assay: biochemical; conditions: for IC50: AChI substrate, DTNB, 412 nm, Tris/HCl pH 8.0; for Ki: read-out: K i (nM) AChE
T3 construct: purchased Sigma Aldrich C3389
Method: Both […] (AChI) and butyrylcholine iodide (BChI) were used as substrates for the enzymatic hydrolysis reactions, with 5,5′‐dithiobis(2‐nitrobenzoic acid) (DTNB) serving as a common reagent for detecting the activities of AChE and BChE. The assay was conducted: 1 mL of 1.0 M Tris/HCl buffer (pH 8.0) was mixed with 10 μL of the sample solution in deionized water. To this mixture, 50 μL of AChE or BChE enzyme solution was added, and the reaction was incubated at room temperature for 10 min. After incubation, 50 μL of DTNB (0.5 mM) was introduced, followed by the addition of 50 μL of either AChI or BChI (10 mM), initiating the enzymatic reaction. […] This color change is due to the reaction of DTNB with thiocholine released during the hydrolysis of AChI or BChI. For every inhibitor that was utilized, IC50 and K i values were determined. In this study, C7512‐ BChE from equine serum and C3389‐ AChE from Electrophorus electricus (electric eel) were purchased from Sigma Aldrich.

BChE from equine serum = biological target: T4, BChE from equine serum (Equus caballus, UniProt P81908); assay: biochemical; conditions: for IC50: BChI substrate, DTNB, 412 nm, Tris/HCl pH 8.0; for Ki: read-out: K i (nM) BChE
T4 construct: C7512‐ BChE from equine serum; purchased Sigma Aldrich C7512; host or cells: equine serum
Method: Both […] (AChI) and butyrylcholine iodide (BChI) were used as substrates for the enzymatic hydrolysis reactions, with 5,5′‐dithiobis(2‐nitrobenzoic acid) (DTNB) serving as a common reagent for detecting the activities of AChE and BChE. The assay was conducted: 1 mL of 1.0 M Tris/HCl buffer (pH 8.0) was mixed with 10 μL of the sample solution in deionized water. To this mixture, 50 μL of AChE or BChE enzyme solution was added, and the reaction was incubated at room temperature for 10 min. After incubation, 50 μL of DTNB (0.5 mM) was introduced, followed by the addition of 50 μL of either AChI or BChI (10 mM), initiating the enzymatic reaction. The hydrolysis of the substrates was monitored spectrophotometrically by measuring the absorbance at 412 nm, corresponding to the formation of the yellow‐colored 5‐thio‐2‐nitrobenzoate anion. This color change is due to the reaction of DTNB with thiocholine released during the hydrolysis of AChI or BChI. For every inhibitor that was utilized, IC50 and K i values were determined. In this study, C7512‐ BChE from equine serum and C3389‐ AChE from Electrophorus electricus (electric eel) were purchased from Sigma Aldrich.

T3 sequence (O42275 24-633): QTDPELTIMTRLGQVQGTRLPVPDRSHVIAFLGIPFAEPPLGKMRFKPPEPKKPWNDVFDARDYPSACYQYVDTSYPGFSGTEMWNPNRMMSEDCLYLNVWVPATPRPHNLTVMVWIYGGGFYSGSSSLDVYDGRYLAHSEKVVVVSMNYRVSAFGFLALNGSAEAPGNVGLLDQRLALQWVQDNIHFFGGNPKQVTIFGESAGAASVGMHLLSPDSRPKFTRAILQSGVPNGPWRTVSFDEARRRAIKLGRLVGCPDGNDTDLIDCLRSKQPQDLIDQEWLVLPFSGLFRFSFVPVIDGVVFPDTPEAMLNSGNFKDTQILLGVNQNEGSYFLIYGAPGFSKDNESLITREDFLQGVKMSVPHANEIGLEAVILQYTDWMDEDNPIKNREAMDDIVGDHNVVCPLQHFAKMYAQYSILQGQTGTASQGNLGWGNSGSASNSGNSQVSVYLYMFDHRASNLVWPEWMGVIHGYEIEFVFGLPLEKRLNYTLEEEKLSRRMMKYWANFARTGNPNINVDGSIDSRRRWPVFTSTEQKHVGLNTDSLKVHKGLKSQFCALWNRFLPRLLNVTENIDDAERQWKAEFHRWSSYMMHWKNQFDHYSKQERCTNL
T4 sequence (P81908 whole entry): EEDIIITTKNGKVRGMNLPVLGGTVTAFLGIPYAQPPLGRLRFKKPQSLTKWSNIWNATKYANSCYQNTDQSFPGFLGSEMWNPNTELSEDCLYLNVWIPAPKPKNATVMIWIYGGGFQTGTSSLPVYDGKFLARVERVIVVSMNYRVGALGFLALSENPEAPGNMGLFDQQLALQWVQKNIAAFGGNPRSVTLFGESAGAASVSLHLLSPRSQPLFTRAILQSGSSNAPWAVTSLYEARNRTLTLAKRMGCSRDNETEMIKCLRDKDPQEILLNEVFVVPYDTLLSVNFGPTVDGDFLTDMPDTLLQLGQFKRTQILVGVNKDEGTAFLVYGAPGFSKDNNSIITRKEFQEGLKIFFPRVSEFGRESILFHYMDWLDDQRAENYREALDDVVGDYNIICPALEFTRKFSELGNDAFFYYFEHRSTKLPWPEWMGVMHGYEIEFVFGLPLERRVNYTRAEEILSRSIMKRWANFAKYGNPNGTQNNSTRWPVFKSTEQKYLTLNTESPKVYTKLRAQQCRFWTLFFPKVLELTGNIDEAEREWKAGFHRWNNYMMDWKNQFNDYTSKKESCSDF

SMILES | IC50 (hMAO‐A) | IC50 (hMAO‐B) | IC50 [1] | Ki [1] | IC50 (BChE from equine serum) | Ki (BChE from equine serum)
CCN(CC)c1ccc(/C=N/NC(=S)Nc2cccc(OC)c2)c(OS(=O)(=O)c2ccc3ccccc3c2)c1 [Compound 5k, (E)‐5‐(Diethylamino)‐2‐({2‐[(3‐methoxyphenyl)carbamothioyl]hydrazono}methyl)phenyl naphthalene‐2‐sulfonate] | 145 ± 8.03 nM | > 1000 nM | 116 ± 8.42 nM | 95.8 ± 9.54 nM | 253 ± 9.15 nM | 205 ± 10.2 nM
CCN(CC)c1ccc(/C=N/NC(=S)Nc2cccc(Cl)c2Cl)c(OS(=O)(=O)c2ccc3ccccc3c2)c1 [Compound 5a, (E)‐2‐({2‐[(2,3‐Dichlorophenyl)carbamothioyl]hydrazono}methyl)‐5‐(diethylamino)phenyl naphthalene‐2‐sulfonate] | 104 ± 4.58 nM | 391 ± 9.04 nM | 14.9 ± 1.54 nM | 11.4 ± 3.06 nM | 125 ± 9.13 nM | 101 ± 22.4 nM
CCN(CC)c1ccc(/C=N/NC(=S)Nc2ccc(F)cc2)c(OS(=O)(=O)c2ccc3ccccc3c2)c1 [Compound 5l, (E)‐5‐(Diethylamino)‐2‐({2‐[(4‐fluorophenyl)carbamothioyl]hydrazono}methyl)phenyl naphthalene‐2‐sulfonate] | 112 ± 2.78 nM | 277 ± 6.33 nM | 29.5 ± 2.68 nM | 27.4 ± 3.45 nM | 200 ± 6.88 nM | 182 ± 9.05 nM
CCN(CC)c1ccc(/C=N/NC(=S)Nc2ccccc2)c(OS(=O)(=O)c2ccc3ccccc3c2)c1 [Compound 5c, (E)‐5‐(Diethylamino)‐2‐{[2‐(phenylcarbamothioyl)hydrazono]methyl}phenyl naphthalene‐2‐sulfonate] | 189 ± 6.46 nM | 296 ± 6.01 nM | 38.4 ± 5.03 nM | 25.4 ± 5.32 nM | 218 ± 8.41 nM | 183 ± 15 nM
CCN(CC)c1ccc(/C=N/NC(=S)Nc2c(Cl)cccc2Cl)c(OS(=O)(=O)c2ccc3ccccc3c2)c1 [Compound 5u, (E)‐2‐({2‐[(2,6‐Dichlorophenyl)carbamothioyl]hydrazono}methyl)‐5‐(diethylamino)phenyl naphthalene‐2‐sulfonate] | 96.2 ± 5.77 nM | 209 ± 5.84 nM | 12.9 ± 1.02 nM | 9.82 ± 1.76 nM | 148 ± 7.35 nM | 112 ± 7.61 nM
CCN(CC)c1ccc(/C=N/NC(=S)NCc2ccc(Cl)cc2)c(OS(=O)(=O)c2ccc3ccccc3c2)c1 [Compound 5q, (E)‐2‐({2‐[(4‐Chlorobenzyl)carbamothioyl]hydrazono}methyl)‐5‐(diethylamino)phenyl naphthalene‐2‐sulfonate] | 119 ± 9.24 nM | 308 ± 6.07 nM | 19.3 ± 1.28 nM | 17.6 ± 3.34 nM | 202 ± 14.9 nM | 183 ± 11.5 nM
